Laboratory results: patent US20260098026A1, “M4 ACTIVATORS/MODULATORS AND USES THEREOF” (Cerevel Therapeutics, LLC, priority 2022, published 2026)

Tests used:
[1] = biological target: T1, M4 mAChR (Homo sapiens, UniProt P08173); assay: cAMP TR-FRET assay with forskolin, M4-overexpressing CHO-K1 cells; format: cell-based
T1 construct: expressed in transfected cells; host or cells: CHO-K1
T1 sequence (P08173 1-479): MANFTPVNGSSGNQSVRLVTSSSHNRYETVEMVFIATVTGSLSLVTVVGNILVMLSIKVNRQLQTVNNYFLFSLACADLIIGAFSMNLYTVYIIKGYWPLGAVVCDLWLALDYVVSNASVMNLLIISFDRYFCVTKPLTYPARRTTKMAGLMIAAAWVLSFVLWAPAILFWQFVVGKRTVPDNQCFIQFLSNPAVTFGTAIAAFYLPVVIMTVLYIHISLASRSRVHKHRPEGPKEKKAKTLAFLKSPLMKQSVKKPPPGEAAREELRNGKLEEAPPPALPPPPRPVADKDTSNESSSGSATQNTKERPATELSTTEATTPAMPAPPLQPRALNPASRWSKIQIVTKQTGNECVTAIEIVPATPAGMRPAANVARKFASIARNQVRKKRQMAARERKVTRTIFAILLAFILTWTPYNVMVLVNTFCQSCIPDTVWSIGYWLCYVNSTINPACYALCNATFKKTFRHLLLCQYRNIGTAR
How it was run: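 CHO-K1 cells overexpressing the receptor were stimulated with forskolin to raise cAMP, so that Gi-mediated agonist decreases could be measured. cAMP was quantified by TR-FRET competition between cellular cAMP and labelled donor for anti-cAMP antibody, giving potency and efficacy.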

[2] = biological target: T2, M3 muscarinic acetylcholine receptor (mAChR) (Homo sapiens, UniProt P20309); assay: FLIPR calcium assay (Fluo 8), M3-overexpressing CHO-K1 cells; format: cell-based
T2 construct: expressed in transfected cells; host or cells: CHO-K1
T2 sequence (P20309 whole entry): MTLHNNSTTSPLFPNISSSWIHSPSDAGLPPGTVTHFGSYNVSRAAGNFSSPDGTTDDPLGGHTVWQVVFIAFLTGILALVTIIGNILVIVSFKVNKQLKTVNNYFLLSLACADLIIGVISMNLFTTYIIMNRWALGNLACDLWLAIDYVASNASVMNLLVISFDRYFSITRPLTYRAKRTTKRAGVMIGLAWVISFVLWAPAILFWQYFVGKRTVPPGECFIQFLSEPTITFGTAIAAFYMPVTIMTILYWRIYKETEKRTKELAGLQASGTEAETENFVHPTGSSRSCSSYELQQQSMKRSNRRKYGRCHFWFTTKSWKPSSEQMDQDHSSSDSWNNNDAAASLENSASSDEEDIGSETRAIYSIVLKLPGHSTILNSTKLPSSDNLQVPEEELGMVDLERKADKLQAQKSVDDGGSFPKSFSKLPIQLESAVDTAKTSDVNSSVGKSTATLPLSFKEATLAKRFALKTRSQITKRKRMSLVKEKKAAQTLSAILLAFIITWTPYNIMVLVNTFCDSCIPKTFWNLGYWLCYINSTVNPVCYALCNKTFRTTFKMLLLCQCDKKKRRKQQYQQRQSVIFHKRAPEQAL
How it was run: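 CHO-K1 cells overexpressing each human receptor seeded at 15,000 per well, grown overnight at 37° C., 5% CO2, then loaded with Fluo-8 for 30 min. Compounds in HBSS added and calcium response read on FLIPR; EC50 and Emax calculated per subtype.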

| Emax ([1]; cAMP TR-FRET with forskolin) [%] | EC50 ([2]; FLIPR calcium) [µM] | Emax ([1]; cAMP assay) [%] | EC50 ([2]; FLIPR) [µM] | Compound |
| --- | --- | --- | --- | --- |
| 19 to 49.9 | > 10 |  |  | CCOC(=O)N1CC2(CC[C@@H](N3CCN(c4cc(F)cnc4-c4cccc(OC)n4)CC3)C2)C1 [Compound A133] |
| 80 to 100 | > 10 |  |  | CCOC(=O)N1CC2(CC[C@@H](N3CCN(c4cc(F)cnc4-c4ccc(CO)c(C)c4)CC3)C2)C1 [Compound A134] |
| 19 to 49.9 | > 10 |  |  | CCOC(=O)N1CC2(CC[C@@H](N3CCN(c4cc(F)cnc4-c4cccc(C)n4)CC3)C2)C1 [Compound A135] |
| 80 to 100 | > 10 |  |  | CCOC(=O)N1CC2(CC[C@@H](N3CCN(c4cc(F)cnc4-c4ccc(O)cc4F)CC3)C2)C1 [Compound A136] |
| 80 to 100 | > 10 |  |  | CCOC(=O)N1CC2(CC[C@@H](N3CCN(c4cc(F)cnc4-c4ccc(OC)nc4C)CC3)C2)C1 [Compound A137] |
| 80 to 100 | > 10 |  |  | CCOC(=O)N1CC2(CC[C@@H](N3CCN(c4cc(F)cnc4-c4cncc(COC)c4)CC3)C2)C1 [Compound A138] |
| 80 to 100 | > 10 |  |  | CCOC(=O)N1CC2(CC[C@@H](N3CCN(c4cc(F)cnc4-c4cc(C)cc(CO)c4)CC3)C2)C1 [Compound A141] |
| 80 to 100 | > 10 |  |  | CCOC(=O)N1CC2(CC[C@@H](N3CCN(c4cc(F)cnc4-c4cccc(O)c4F)CC3)C2)C1 [Compound A142] |
| 80 to 100 | > 10 |  |  | CCOC(=O)N1CC2(CC[C@@H](N3CCN(c4cc(F)cnc4-c4cccc(O)n4)CC3)C2)C1 [Compound A143] |
| 80 to 100 | > 10 |  |  | CCOC(=O)N1CC2(CC[C@@H](N3CCN(c4cc(F)cnc4-c4cc(C)nn4C)CC3)C2)C1 [Compound A144] |
| 80 to 100 | > 10 |  |  | CCOC(=O)N1CC2(CC[C@@H](N3CCN(c4cc(F)cnc4-c4ccc(OC)cc4CO)CC3)C2)C1 [Compound A145] |
| 80 to 100 | > 10 |  |  | CCOC(=O)N1CC2(CC[C@@H](N3CCN(c4cc(F)cnc4-c4ccc(F)cc4CO)CC3)C2)C1 [Compound A147] |
|  |  | 80 to 100 | > 10 | CCOC(=O)N1CC2(CC[C@@H](N3CCN(c4cc(F)cnc4-c4ccc5nc[nH]c5c4)CC3)C2)C1 [Compound A148] |
|  |  | 50 to 79.9 | > 10 | CCOC(=O)N1CC2(CC[C@@H](N3CCN(c4cc(F)cnc4-c4ccc(C)c(CO)c4)CC3)C2)C1 [Compound A150] |
|  |  | 80 to 100 | > 10 | CCOC(=O)N1CC2(CC[C@@H](N3CCN(c4cc(F)cnc4-c4ccc(OC)cc4C#N)CC3)C2)C1 [Compound A152] |
|  |  | 80 to 100 | > 10 | CCOC(=O)N1CC2(CC[C@@H](N3CCN(c4cc(F)cnc4-c4cc(F)ncc4F)CC3)C2)C1 [Compound A153] |
|  |  | 80 to 100 | > 10 | CCOC(=O)N1CC2(CC[C@@H](N3CCN(c4cc(F)cnc4-c4cc(F)cc(CO)c4)CC3)C2)C1 [Compound A154] |
|  |  | 80 to 100 | > 10 | CCOC(=O)N1CC2(CC[C@@H](N3CCN(c4cc(F)cnc4-c4ccc(=O)n(CC)c4)CC3)C2)C1 [Compound A155] |
|  |  | 80 to 100 | > 10 | CCOC(=O)N1CC2(CC[C@@H](N3CCN(c4cc(F)cnc4-c4ccc(F)c(O)c4)CC3)C2)C1 [Compound A156] |
|  |  | 80 to 100 | > 10 | CCOC(=O)N1CC2(CC[C@@H](N3CCN(c4cc(F)cnc4-c4cn(C)nc4C)CC3)C2)C1 [Compound A157] |
|  |  | 80 to 100 | > 10 | CCOC(=O)N1CC2(CC[C@@H](N3CCN(c4cc(F)cnc4-c4ccc5c[nH]nc5c4)CC3)C2)C1 [Compound A159] |
|  |  | 80 to 100 | > 10 | CCOC(=O)N1CC2(CC[C@@H](N3CCN(c4cc(F)cnc4-c4cnn5c4CCCC5)CC3)C2)C1 [Compound A160] |
|  |  | 80 to 100 | > 10 | CCOC(=O)N1CC2(CC[C@@H](N3CCN(c4cc(F)cnc4-c4ccc(F)nc4C)CC3)C2)C1 [Compound A161] |
|  |  | 80 to 100 | > 10 | CCOC(=O)N1CC2(CC[C@@H](N3CCN(c4cc(F)cnc4-c4cccc(F)c4CO)CC3)C2)C1 [Compound A162] |
|  |  | 80 to 100 | > 10 | CCOC(=O)N1CC2(CC[C@@H](N3CCN(c4cc(F)cnc4-c4ccnc(F)c4OC)CC3)C2)C1 [Compound A163] |
|  |  | 50 to 79.9 | > 10 | CCOC(=O)N1CC2(CC[C@@H](N3CCN(c4cc(F)cnc4-c4cn(C)c5ncccc45)CC3)C2)C1 [Compound A164] |
|  |  | 80 to 100 | > 10 | CCOC(=O)N1CC2(CC[C@@H](N3CCN(c4cc(F)cnc4-c4ccn5nccc5c4)CC3)C2)C1 [Compound A165] |

| Emax ([1]; cAMP TR-FRET with forskolin) [%] | EC50 ([2]; FLIPR calcium) [µM] | Emax ([1]; cAMP assay) [%] | EC50 ([2]; FLIPR) [µM] | Compound |
| --- | --- | --- | --- | --- |
|  |  | 80 to 100 | > 10 | CCOC(=O)N1CC2(CC[C@@H](N3CCN(c4cc(F)cnc4-c4c(O)cccc4F)CC3)C2)C1 [Compound A167] |
|  |  | 80 to 100 | > 10 | CCOC(=O)N1CC2(CC[C@@H](N3CCN(c4cc(F)cnc4-c4cnn(COC)c4)CC3)C2)C1 [Compound A168] |
|  |  | 80 to 100 | > 10 | CCOC(=O)N1CC2(CC[C@@H](N3CCN(c4cc(F)cnc4-c4ccc(CCO)cc4)CC3)C2)C1 [Compound A169] |
|  |  | 80 to 100 | > 10 | CCOC(=O)N1CC2(CC[C@@H](N3CCN(c4cc(F)cnc4-c4c[nH]nc4C4CC4)CC3)C2)C1 [Compound A170] |
|  |  | 80 to 100 | > 10 | CCOC(=O)N1CC2(CC[C@@H](N3CCN(c4cc(F)cnc4-c4cnn(CCF)c4)CC3)C2)C1 [Compound A171] |
|  |  | 80 to 100 | > 10 | CCOC(=O)N1CC2(CC[C@@H](N3CCN(c4cc(F)cnc4-c4cnn(CC(F)F)c4)CC3)C2)C1 [Compound A172] |
|  |  | 50 to 79.9 | > 10 | CCOC(=O)N1CC2(CC[C@@H](N3CCN(c4cc(F)cnc4-c4cnn5c4OCCC5)CC3)C2)C1 [Compound A173] |
|  |  | 80 to 100 | > 10 | CCOC(=O)N1CC2(CC[C@@H](N3CCN(c4cc(F)cnc4-c4cncc(N)c4)CC3)C2)C1 [Compound A174] |
|  |  | 80 to 100 | > 10 | CCOC(=O)N1CC2(CC[C@@H](N3CCN(c4cc(F)cnc4-c4cc(O)ncc4F)CC3)C2)C1 [Compound A175] |
|  |  | 80 to 100 | > 10 | CCOC(=O)N1CC2(CC[C@@H](N3CCN(c4cc(F)cnc4-c4ccc5c(c4)nnn5C)CC3)C2)C1 [Compound A176] |
|  |  | 80 to 100 | > 10 | CCOC(=O)N1CC2(CC[C@@H](N3CCN(c4cc(F)cnc4-c4ccn5ncnc5c4)CC3)C2)C1 [Compound A177] |
|  |  | 19 to 49.9 | > 10 | CCOC(=O)N1CC2(CC[C@@H](N3CCN(c4cc(F)cnc4-c4cccc5ncnn45)CC3)C2)C1 [Compound A178] |
|  |  | 80 to 100 | > 10 | CCOC(=O)N1CC2(CC[C@@H](N3CCN(c4cc(F)cnc4-c4cccnc4F)CC3)C2)C1 [Compound A179] |
|  |  | 80 to 100 | > 10 | CCOC(=O)N1CC2(CC[C@@H](N3CCN(c4cc(F)cnc4-c4ccc(OC)nc4F)CC3)C2)C1 [Compound A180] |
|  |  | 80 to 100 | > 10 | CCOC(=O)N1CC2(CC[C@@H](N3CCN(c4cc(F)cnc4-c4cncnc4C)CC3)C2)C1 [Compound A181] |
|  |  | 80 to 100 | > 10 | CCOC(=O)N1CC2(CC[C@@H](N3CCN(c4cc(F)cnc4-c4ccc(C#N)cc4)CC3)C2)C1 [Compound A182] |
|  |  | 80 to 100 | > 10 | CCOC(=O)N1CC2(CC[C@@H](N3CCN(c4cc(F)cnc4-c4cnc(C5CC5)nc4)CC3)C2)C1 [Compound A183] |
|  |  | 80 to 100 | > 10 | CCOC(=O)N1CC2(CC[C@@H](N3CCN(c4cc(F)cnc4-c4ccc(C)nc4)CC3)C2)C1 [Compound A186] |
|  |  | 80 to 100 | > 10 | [2H]C([2H])([2H])n1cc(-c2ncc(F)cc2N2CCN([C@@H]3CCC4(C3)CN(C(=O)OCC)C4)CC2)cn1 [Compound A187] |
|  |  | 80 to 100 | > 10 | CCOC(=O)N1CC2(CC[C@@H](N3CCN(c4cc(F)cnc4-c4ccc(OC)nc4)CC3)C2)C1 [Compound A188] |
|  |  | 80 to 100 | > 10 | CCOC(=O)N1CC2(CC[C@@H](N3CCN(c4cc(F)cnc4-c4ccc(OC(F)F)nc4)CC3)C2)C1 [Compound A189] |
|  |  | 80 to 100 | > 10 | CCOC(=O)N1CC2(CC[C@@H](N3CCN(c4cc(F)cnc4-c4cnn(C)c4)CC3)C2)C1 [Compound A190] |
|  |  | 50 to 79.9 | > 10 | CCOC(=O)N1CC2(CC[C@@H](N3CCN(c4cc(F)cnc4-c4cnn(C(C)(C)C)c4)CC3)C2)C1 [Compound A191] |
|  |  | 80 to 100 | > 10 | CCOC(=O)N1CC2(CC[C@@H](N3CCN(c4cc(F)cnc4-c4ccc5c(c4)CN(C)C5=O)CC3)C2)C1 [Compound A192] |
|  |  | 80 to 100 | > 10 | CCOC(=O)N1CC2(CC[C@@H](N3CCN(c4cc(F)cnc4C4=CCOCC4)CC3)C2)C1 [Compound A193] |
|  |  | 50 to 79.9 | > 10 | CCOC(=O)N1CC2(CC[C@@H](N3CCN(c4cc(F)cnc4-c4cnn(C(C)C)c4)CC3)C2)C1 [Compound A195] |
